This is an account of results in patent US20250051479A1, “CYTOTOXICITY TARGETING CHIMERAS FOR CXCR3-EXPRESSING CELLS” (GLAXOSMITHKLINE INTELLECTUAL PROPERTY DEVELOPMENT LIMITED, priority 2022, published 2025).

Structures are written as SMILES.

This test has as its system CHOK1 cells engineered to overexpress CXCR3. Briefly: Antibody dependent cellular cytotoxicity (ADCC) reporter assay. The following applies: with anti-cotinine antibody (human IgG1 Fc, S239D/I332E), Jurkat FcγRIIIa NFAT-luciferase reporter cells, incubated about 12-18 hours, average of two experimental runs, EC50 in molar (M). In kind it is cell-based. The method, then: An antibody dependent cellular cytotoxicity (ADCC) reporter assay was conducted using the following four assay components: (i) ARM compound of Formula (I) targeting CXCR3 (concentrations ranging from 1 pM to 10 μM); (ii) anti-cotinine antibody having a heavy chain sequence of SEQ ID NO: 11 and a light chain sequence of SEQ ID NO: 12 (rabbit variable region with human IgG1 Fc domain containing DE mutation (S239D/I332E)) (concentrations ranging from 0.01 μg/mL-200 μg/mL); (iii) Target cells: CHOK1 cells engineered to overexpress CXCR3 (typically 1000-20,000 cells per well); and (iv) Reporter cells—Jurkat cells engineered to express FcγRIIIa with a reporter gene luciferase under the control of the NFAT promoter (typically 3000-75,000 cells per well). Reagents were combined in final volume of 20 μL in 384-well tissue culture treated plate. […]
Luminescence signal was measured on a microplate reader capable of measuring luminescence and signal:background was calculated by dividing the signal of a test well by the signal obtained when no compound of formula (I) was included in the assay. […]
ARMs compounds of Formula (I) were tested for ADCC activity in the above assay in two experimental runs and the results are shown in Table 3 below. […] The pEC50 value is the negative log of the EC50 value, wherein the EC50 value is half maximal effective concentration measured in molar (M). […]
A general note: A reporter such as luciferase makes a cellular process visible.

Regarding `CCOc1ccc(-n2c([C@@H](C)N(CC3CCN(C(=O)[C@H]4CC[C@H](NC(=O)CCCO[C@H]5CC[C@H](OCCNC(=O)[C@H]6CC(=O)N(C)[C@@H]6c6cccnc6)CC5)CC4)CC3)C(=O)Cc3ccc(F)c(C(F)(F)F)c3)nc3ncccc3c2=O)cc1` (racemic) [Example 2, (2S,3S)-N-(2-(((1R,4S)-4-(4-(((1S,4S)-4-(4-((N-((R)-1-(3-(4-ethoxyphenyl)-4-oxo-3,4-dihydropyrido[2,3-d]pyrimidin-2-yl)ethyl)-2-(4-fluoro-3-(trifluoromethyl)phenyl)acetamido)methyl)piperidine-1-carbonyl)cyclohexyl)amino)-4-oxobutoxy)cyclohexyl)oxy)ethyl)-1-methyl-5-oxo-2-(pyridin-3-yl)pyrrolidine-3-carboxamide], the EC50 (Cricetulus griseus, read-out: ADCC Reporter Assay pEC50 (converted)) is 3.98e-09 M.
Regarding `CCOc1ccc(-n2c([C@@H](C)N(CC3CCN(C(=O)C4CCC(NC(=O)CCCOC5CCC(OCCNC(=O)[C@H]6CC(=O)N(C)[C@@H]6c6cccnc6)CC5)CC4)CC3)C(=O)Cc3ccc(F)c(C(F)(F)F)c3)nc3ncccc3c2=O)cc1` (stereo partly drawn) [Example 1, (2S,3S)—N-(2-(((1R,4S)-4-(4-(((1R,4R)-4-(4-((N-((R)-1-(3-(4-ethoxyphenyl)-4-oxo-3,4-dihydropyrido[2,3-d]pyrimidin-2-yl)ethyl)-2-(4-fluoro-3-(trifluoromethyl)phenyl)acetamido)methyl)piperidine-1-carbonyl)cyclohexyl)amino)-4-oxobutoxy)cyclohexyl)oxy)ethyl)-1-methyl-5-oxo-2-(pyridin-3-yl)pyrrolidine-3-carboxamide], the “ADCC Reporter Assay pEC50” value was 7.7.
